Patent US20140155376A1, “PYRROLOPYRAZINE KINASE INHIBITORS” (Hoffmann-La Roche Inc., priority 2010, published 2014)

Target: T1, JAK3 (recombinant human kinase domain; h-jak3(810-1124)) (Homo sapiens, UniProt P52333)
T1 construct: h-jak3(810- 1124)-sf9-c; made in house; host or cells: Sf9 insect cells
Test: Determination of IC50 of Janus Kinase (JAK) inhibition: JAK3, radioactive end-point assay with 33P-ATP
Assay type: biochemical
Details: JAK3 kinase domain; ATP 1.5 uM, peptide 50 uM, 20 minutes, room temperature, 10% DMSO; read-out: Ic50 h-jak3(810-1124)-sf9-c:no additive

T1 sequence (P52333 810-1124): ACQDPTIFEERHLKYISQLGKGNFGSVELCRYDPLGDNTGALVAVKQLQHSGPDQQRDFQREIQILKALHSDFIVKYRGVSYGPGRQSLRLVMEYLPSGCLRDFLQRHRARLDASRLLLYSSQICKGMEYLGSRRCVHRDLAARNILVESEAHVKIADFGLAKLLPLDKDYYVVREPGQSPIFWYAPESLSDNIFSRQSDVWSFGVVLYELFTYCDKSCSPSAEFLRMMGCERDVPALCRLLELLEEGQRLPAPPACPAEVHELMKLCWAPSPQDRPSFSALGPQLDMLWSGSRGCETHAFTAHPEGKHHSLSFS

For `CC(C)NC(=O)c1c[nH]c2ncc(Oc3ccc4cc[nH]c4c3)nc12` [Example I-272, 2-(1H-Indol-6-yloxy)-5H-pyrrolo[2,3-b]pyrazine-7-carboxylic acid isopropylamide], the IC50 was 29.3 nM.

`C[C@H](NC(=O)c1c[nH]c2ncc(C3CCCCC3)nc12)C(C)(C)O` [Example I-11, 2-Cyclohexyl-5H-pyrrolo[2,3-b]pyrazine-7-carboxylic acid ((S)-2-hydroxy-1,2-dimethyl-propyl)-amide] was tested, and the IC50 was 152 nM.

`CCNC(=O)c1c[nH]c2ncc(Oc3cccc(C#N)c3)nc12` [Example I-245, 2-(3-Cyano-phenoxy)-5H-pyrrolo[2,3-b]pyrazine-7-carboxylic acid ethylamide] was tested, and the IC50 was 3310 nM.

In the case of `CC(C)(CO)CNC(=O)c1c[nH]c2ncc(C(F)(F)F)nc12` [Example I-35, 2-Trifluoromethyl-5H-pyrrolo[2,3-b]pyrazine-7-carboxylic acid (3-hydroxy-2,2-dimethyl-propyl)-amide], the IC50 is reported as 1040 nM.

Work on `C[C@H](NC(=O)c1c[nH]c2ncc(-c3cccs3)nc12)C(C)(C)C` [Example I-142, 2-Thiophen-2-yl-5H-pyrrolo[2,3-b]pyrazine-7-carboxylic acid ((S)-1,2,2-trimethyl-propyl)-amide] yielded an IC50 of 0.18 nM.

`CC[C@H](C)NC(=O)c1c[nH]c2ncc(Oc3ccccc3)nc12` [Example I-121, 2-Phenoxy-5H-pyrrolo[2,3-b]pyrazine-7-carboxylic acid ((S)-sec-butyl)-amide] showed an IC50 of 59.5 nM.

`C[C@H](Cc1ccccc1)NC(=O)c1ccc(-c2cnc3[nH]cc(C(=O)N[C@@H](C)C(C)(C)C)c3n2)s1` [Example I-170, 2-[5-((R)-1-Methyl-2-phenyl-ethylcarbamoyl)-thiophen-2-yl]-5H-pyrrolo[2,3-b]pyrazine-7-carboxylic acid ((S)-1,2,2-trimethyl-propyl)-amide] showed an IC50 of 0.58 nM.

With `CC(C)NC(=O)c1c[nH]c2ncc(Oc3cccc(C(F)(F)F)c3)nc12` [Example I-235, 2-(3-Trifluoromethyl-phenoxy)-5H-pyrrolo[2,3-b]pyrazine-7-carboxylic acid isopropylamide] the IC50 was 784 nM.

`CC(NC(=O)c1ccc(-c2cnc3[nH]cc(C(=O)N[C@@H](C)C(C)(C)C)c3n2)s1)c1ccc(F)cc1` (stereo partly drawn) [Example I-195, 2-{5-[1-(4-Fluoro-phenyl)-ethylcarbamoyl]-thiophen-2-yl}-5H-pyrrolo[2,3-b]pyrazine-7-carboxylic acid ((S)-1,2,2-trimethyl-propyl)-amide] showed an IC50 of 0.46 nM.

In the case of `CC(C)(C)[C@H](CC#N)NC(=O)c1c[nH]c2ncc(C3CC3)nc12` [Example I-77, 2-Cyclopropyl-5H-pyrrolo[2,3-b]pyrazine-7-carboxylic acid ((S)-1-cyanomethyl-2,2-dimethyl-propyl)-amide], the IC50 is reported as 13.7 nM.

Compound `CCNC(=O)c1c[nH]c2ncc(Oc3cccc(OC(F)(F)F)c3)nc12` [Example I-246, 2-(3-Trifluoromethoxy-phenoxy)-5H-pyrrolo[2,3-b]pyrazine-7-carboxylic acid ethylamide] has an IC50 of 3460 nM.

Work on `COc1ccccc1CNC(=O)c1ccc(-c2cnc3[nH]cc(C(=O)N[C@@H](C)C(C)(C)C)c3n2)s1` [Example I-203, 2-[5-(2-Methoxy-benzylcarbamoyl)-thiophen-2-yl]-5H-pyrrolo[2,3-b]pyrazine-7-carboxylic acid ((S)-1,2,2-trimethyl-propyl)-amide] yielded an IC50 of 0.4 nM.

Compound `CC(NC(=O)c1c[nH]c2ncc(C3CC3)nc12)c1ccccn1` (centres unmarked) [Example I-70, 2-Cyclopropyl-5H-pyrrolo[2,3-b]pyrazine-7-carboxylic acid (1-pyridin-2-yl-ethyl)-amide] has an IC50 of 87 nM.

`C[C@H](NC(=O)c1c[nH]c2ncc(Oc3ccc(F)cc3F)nc12)C(C)(C)C` [Example I-133, 2-(2,4-Difluoro-phenoxy)-5H-pyrrolo[2,3-b]pyrazine-7-carboxylic acid ((S)-1,2,2-trimethyl-propyl)-amide] was tested, and the IC50 was 154 nM.

`CC(C)NC(=O)c1c[nH]c2ncc(Oc3ccc4c(c3)[C@H](NC(=O)C(C)(C)C)CC4)nc12` [Example I-285, 2-[(R)-3-(2,2-Dimethyl-propionylamino)-indan-5-yloxy]-5H-pyrrolo[2,3-b]pyrazine-7-carboxylic acid isopropylamide] was tested, and the IC50 was 234 nM.

`N#CC[C@@H](NC(=O)c1c[nH]c2ncc(C3CC3)nc12)C1CC1` [Example I-135, 2-Cyclopropyl-5H-pyrrolo[2,3-b]pyrazine-7-carboxylic acid ((R)-2-cyano-1-cyclopropyl-ethyl)-amide] was tested, and the IC50 was 20.6 nM.

With `C[C@H](NC(=O)c1c[nH]c2ncc(-c3ccc(C(=O)N[C@H]4C[C@@H]4c4ccccc4)s3)nc12)C(C)(C)C` [Example I-191, 2-[5-((1S,2R)-2-Phenyl-cyclopropyl-carbamoyl)-thiophen-2-yl]-5H-pyrrolo[2,3-b]pyrazine-7-carboxylic acid ((S)-1,2,2-trimethyl-propyl)-amide] the IC50 was 0.55 nM.

In the case of `CONC(=O)c1ccc(-c2cnc3[nH]cc(C(=O)N[C@@H](C)C(C)(C)C)c3n2)s1` [Example I-197, 2-(5-Methoxy-carbamoyl-thiophen-2-yl)-5H-pyrrolo[2,3-b]pyrazine-7-carboxylic acid ((S)-1,2,2-trimethyl-propyl)-amide], the IC50 is reported as 0.32 nM.

With `CC(C)NC(=O)c1c[nH]c2ncc(Oc3ccc4[nH]ccc4c3)nc12` [Example I-277, 2-(1H-Indol-5-yloxy)-5H-pyrrolo[2,3-b]pyrazine-7-carboxylic acid isopropylamide] the IC50 was 229 nM.

`CC(NC(=O)c1c[nH]c2ncc(Oc3ccc(F)cc3F)nc12)C1CC1` (centres unmarked) [Example I-105, 2-(2,4-Difluoro-phenoxy)-5H-pyrrolo[2,3-b]pyrazine-7-carboxylic acid (1-cyclopropyl-ethyl)-amide] gave an IC50 of 103 nM.

In the case of `COCC(C)NC(=O)c1c[nH]c2ncc(C3CC3)nc12` (centres unmarked) [Example I-9, 2-Cyclopropyl-5H-pyrrolo[2,3-b]pyrazine-7-carboxylic acid (2-methoxy-1-methyl-ethyl)-amide], the IC50 is reported as 19.6 nM.

Compound `CC(C)NC(=O)c1c[nH]c2ncc(Oc3ccc4c(c3)[C@H](NS(C)(=O)=O)CC4)nc12` [Example I-268, 2-((R)-3-Methanesulfonylamino-indan-5-yloxy)-5H-pyrrolo[2,3-b]pyrazine-7-carboxylic acid isopropylamide] has an IC50 of 155 nM.

`C[C@H](NC(=O)c1c[nH]c2ncc(C3CC3)nc12)[C@@](C)(O)CC1CC1` [Example I-38, 2-Cyclopropyl-5H-pyrrolo[2,3-b]pyrazine-7-carboxylic acid ((1S,2S)-3-cyclopropyl-2-hydroxy-1,2-dimethyl-propyl)-amide] gave an IC50 of 115 nM.

Work on `C[C@H](NC(=O)c1c[nH]c2ncc(-c3cnn(C)c3)nc12)C(C)(C)C` [Example I-141, 2-(1-Methyl-1H-pyrazol-4-yl)-5H-pyrrolo[2,3-b]pyrazine-7-carboxylic acid ((S)-1,2,2-trimethyl-propyl)-amide] yielded an IC50 of 0.19 nM.

`CCNC(=O)c1c[nH]c2ncc(Oc3ccc4cc[nH]c4c3)nc12` [Example I-273, 2-(1H-Indol-6-yloxy)-5H-pyrrolo[2,3-b]pyrazine-7-carboxylic acid ethylamide] gave an IC50 of 470 nM.

`C[C@H](NC(=O)c1c[nH]c2ncc(C3CC3)nc12)C1(C#N)CCCC1` [Example I-101, 2-Cyclopropyl-5H-pyrrolo[2,3-b]pyrazine-7-carboxylic acid [(S)-1-(1-cyano-cyclopentyl)-ethyl]-amide] showed an IC50 of 12 nM.
